Laboratory results from patent US7767803B2, “Stabilized aptamers to PSMA and their use as prostate cancer therapeutics” (Archemix Corp., priority 2002, dated 2010).
“Also recorded” adds a separate entry of the source. {C6-FAM} = fluorescein (C6-FAM) label; [invdT] = inverted (3'-3') thymidine; d = 2'-deoxy (DNA); m = 2'-O-methyl; r = 2'-OH (RNA); f = 2'-fluoro

Experiments:
[1] = test system: LNCaP cells; test: Cell proliferation assay, chemiluminescent detection of BrdU; type: cell-based; conditions: for effect on cell viability / cell killing (in words): LNCaP cells
Description: Effects on LNCaP cell viability were assessed in a cell proliferation assay based on chemiluminescent detection of BrdU described below (Cell Proliferation ELISA, BrdU (Roche, Indianapolis, Ind.). PC-3 cells were used as a control cell line.
Media from LNCaP (PSMA+) or PC3 (PSMA−) cells growing in 15 cm plates was aspirated off then cells were washed with 10 mL 1×PBS. Cells were trypsinized for 30 sec at 37° C. Following trypsinization, 8 mL 10% FBS media was used to quench trypsin. […] Following spin the media was aspirated off and the cell pellet was re-suspended with 10 mL complete media. The cell density was adjusted to 200,000 cells/mL. 50 μl of cells/well was added to collagen coated black 96-well plates (10,000 cells/well). […] Following overnight incubation 25 μl of media, aptamer or antibody was added to each well with the final volume in the well being 100 μl and incubated at 37° C. in 5% CO2 for designated time length. […] After 2 days 20 μl BrdU labeling reagent (100×) is mixed with 2 mL of complete media. […] After incubation, the media was removed, and the assay was completed following the manufacturer's protocol: 200 μl/well FixDenat solution was added to each well and incubated for 30 min at RT. Following removal of FixDenat solution 100 μl anti-BrdU POD Fab fragment solution (Luminol/4-iodophenol) was added to each well and incubated for 90 min at RT. After incubation anti-BrdU POD solution was removed and plates were washed with 200 μl/well of washing solution three times with 5 min RT incubations. 100 μl of substrate solution was added to each well and cells were incubated for 3 min at RT in the dark. The plates were read using a luminescence program with a 1 sec count on a Packard TopCount Microplate Scintillation and Luminescence Counter.

[2] = target: T1, ECD PSMA (Homo sapiens, UniProt Q04609); test: Dot blot binding assay (nitrocellulose filtration)
T1 construct: N-terminal linker […]; made in house; host or cells: 293 Freestyle cells, pSecTag2B vector
T1 sequence (Q04609 with tags, fused parts or gaps): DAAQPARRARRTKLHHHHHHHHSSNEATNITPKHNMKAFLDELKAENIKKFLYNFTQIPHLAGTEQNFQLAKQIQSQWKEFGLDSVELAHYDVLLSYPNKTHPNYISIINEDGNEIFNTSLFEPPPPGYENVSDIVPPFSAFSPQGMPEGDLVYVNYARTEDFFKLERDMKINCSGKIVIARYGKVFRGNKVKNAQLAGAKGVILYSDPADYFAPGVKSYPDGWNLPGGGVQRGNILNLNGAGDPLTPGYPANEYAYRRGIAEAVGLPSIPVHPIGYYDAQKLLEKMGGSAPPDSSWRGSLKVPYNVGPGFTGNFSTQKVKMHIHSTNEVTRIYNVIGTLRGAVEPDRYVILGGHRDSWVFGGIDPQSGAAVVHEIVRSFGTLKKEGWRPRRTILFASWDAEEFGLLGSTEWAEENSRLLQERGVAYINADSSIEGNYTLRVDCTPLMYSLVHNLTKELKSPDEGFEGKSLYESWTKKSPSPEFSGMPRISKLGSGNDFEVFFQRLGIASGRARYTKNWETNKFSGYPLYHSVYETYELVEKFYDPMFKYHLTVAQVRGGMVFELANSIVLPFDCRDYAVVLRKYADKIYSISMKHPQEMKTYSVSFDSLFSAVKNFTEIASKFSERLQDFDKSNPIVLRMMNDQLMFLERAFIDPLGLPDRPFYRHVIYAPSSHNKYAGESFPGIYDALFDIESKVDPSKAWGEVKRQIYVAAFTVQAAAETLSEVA
Description: The binding reactions are then analyzed by nitrocellulose filtration using a Minifold I dot-blot, 96-well vacuum filtration manifold (Schleicher & Schuell, Keene, N.H.) (dot blot binding assay). A three-layer filtration medium is used, consisting (from top to bottom) of Protran nitrocellolose (Schleicher & Schuell), Hybond-P nylon (Amersham Biosciences, Piscataway, N.J.) and GB002 gel blot paper (Schleicher & Schuell). The nitrocellulose layer, which selectively binds protein over nucleic acid, preferentially retains the anti-PSMA aptamer in complex with a protein ligand, while non-complexed anti-PSMA aptamer passes through the nitrocellulose and adhered to the nylon (the gel blot paper is included as a supporting medium for the other filters). Following filtration, the filter layers are separated, dried and exposed on a phosphor screen (Amersham Biosciences) and quantified using a Storm 860 Phosphorimager® blot imaging system (Amersham Biosciences) and KD values are calculated by fitting the equation y=(max/(1+K/protein))+yint.
Dot Blot Binding Analysis. […]
In order to identify the core structural elements required for ARC955 binding to PSMA, the 3′-boundaries of the clone was determined through alkaline hydrolysis. […] The KD and maximum % bound for the 3 minimized constructs with the overall highest PSMA affinity, as determined by a dot blot binding assay, are listed in Table 4. […]

[3] = test system: LNCaP cells (PSMA+); test: LNCaP FACS assay with fluorescein-labeled aptamers; type: cell-based; conditions: FACS analysis
Excerpt: The parent A9 aptamer sequence (SEQ ID NO 168) is predicted by the MFOLD algorithm implemented in the RNAStructure program v. 4.11 to fold into a partially mismatched hairpin that encompasses almost the entire molecule. A series of truncated constructs were designed, in which self-pairing nucleotides from the 5′- and 3′-ends were simultaneously removed, chemically synthesized using conventional solid-phase phosphoramidite-based synthesis, and tested. In the design of some of the truncated A9 aptamers, see e.g. ARC591, additional bases were added to the 3′ and 5′ ends of the truncate, where the bases added to the 5′ end were capable of forming Watson-Crick base pairs with those added to the 3′ end thereby increasing the length of stem structure. Truncated aptamers were 5′-labeled with fluorescein and tested for binding in to LNCaP cells (PSMA+) in the FACS assay described below. PC-3 cells (PSMA−) were used as a control cell line. The sequences of the truncated A9 aptamers designed are listed below in Table 6 below.
To accomplish 5′-fluorescein labeling, aptamers were synthesized with a 5′-amine and then modified post-solid phase synthesis. The required aptamer was dissolved to a concentration of ˜10-50 mg/mL in 25 mM phosphate buffer, pH 7.4. The small molecule, NHS ester of fluorescein, was dissolved to a concentration of 10 mg/mL in DMSO. 1.5 Molar equivalents were added to the aptamer and the solution vortexed for ˜15 seconds. The reaction was allowed to proceed in the dark at room temperature for 1 hour and then a 5 μL aliquot was withdrawn, diluted with water and analyzed by HPLC. Additional equivalents of the small molecule were added until the reaction was complete by HPLC. Excess small molecules were removed by gel filtration.
To prepare aptamers for the FACS assay, PSMA aptamers were serially diluted (0-1 uM) in FACS buffer (1×DPBS w/Ca^++/Mg^++ (Gibco, Carlsbad, Calif.) supplemented with 10 mg/mL salmon sperm DNA & 0.2% Na Azide), in a V-bottom 96 well plate, at the concentrations to be tested. LNCaP and PC-3 cells (ATCC, Manassas, Va.) were harvested with trypsin, and 200,000 cells/well were counted, washed once with 1×DPBS (with Ca^++ and Mg^++) and resuspended in 200 μl of FACS Buffer. The 200 μl of cells in FACS buffer were added to individual wells of a new 96 well plate, pelleted by centrifugation (1300 rpm for 5 minutes), and resuspended in 100 μl of the appropriate concentration of diluted aptamer. FACS buffer, c-PSMA antibody (3C6) (Northwest Biotherapeutics, Bothell, Wash., Cat #: 60-5002) and an irrelevant fluorescein isothiocyanate (“FITC”) mouse IgG1 isotype control antibody (BD Pharmingen, San Diego, Calif., Cat#: 554679) were used as controls. The wells of aptamer/cell mixture were incubated at room temperature for 20-30 minutes. […]

[4] = target: PSMA NAALADase activity (Homo sapiens, UniProt Q04609); test: NAALADase inhibition assay; type: biochemical; conditions: relative to parent aptamer
Chain of PSMA NAALADase activity (Q04609 with tags, fused parts or gaps limits assumed): as the sequence (Q04609 with tags, fused parts or gaps) above
Description: These point mutant constructs were assessed for activity in terms of inhibition of PSMA NAALADase activity. The NAALADase assay was performed in 96 well format. PSMA aptamers were serially diluted in 1× reaction buffer (40 mM Tris-HCl, pH 7.4, 0.1 mM ZnSO4, 0.1 mg/mL BSA) in a standard 96 well plate to be tested at a final concentration range from 30 pM to 1 μM. The enzyme was prepared by diluting 30 μL of 100 nM PSMA into 8 mL of reaction buffer, and kept cool on ice. The substrate was prepared by adding 19 μl of NAAG [Glutamate-3,4-^3H], 50.8 Ci/mmol, 19.7 μM (Perkin-Elmer, Wellesley, Mass., NET1082) into 2.2 mL of reaction buffer.
Following preparation of all reagents, 4 μl of each serially diluted aptamer was added to a separate 96 well plate (the reaction plate). 76 μl of diluted enzyme was added to the corresponding wells containing aptamer. 80 μl of reaction buffer was added to one column of wells to serve as a background control. The diluted substrate and reaction plate were then moved to a room at 37° C. and allowed to equilibrate for 10 minutes. […]
To separate the cleavage products, […] and Glutamate, from the substrate, an AG 1-×8, 200-400 mesh, formate resin (BioRad, Hercules, Calif., # 140-1454) was used. […] The plate was sealed and read using a Packard Topcount Microplate Scintillation Counter. […]

O=c1c(-c2ccc(O)cc2)coc2cc(O)cc(O)c12 [Genistein, reference compound] was tested, and the “cytotoxicity at 25 μM” value ([1]; positive control, 25 μM dose) was “partial inhibition” and the “cytotoxicity at 150 μM” value ([1]; positive control, 150 μM) was “complete cell killing”.

For “AGAGGAGAGAACGUUCUACUAUGGGUGGCUGGGAGGGG (2'-O-methyl at ACU, RNA at G, backbone not given here) [ARC1091, rGmH minimer of ARC955]”, the “PSMA binding (in words)” value [2] was “maintains the full binding capacity”.

For “C6 FAM-GGAGGACCGAAAAAGACCUGACUUCUAUACUAAGUCUACGUUCCUCC-3T (GGAGGACCGAAAAAGACCUGACUUCUAUACUAAGUCUACGUUCCUCCT; 5' FAM label and 3' inverted dT, sugar chemistry not clearly assigned, further chemistry not given here) [ARC710, fluorescently labeled A9 minimer]”, the “competition with fluorescently labeled anti-PSMA antibody for binding to the surface of LNCaP cells” value [3] was “effectively competes”.

In the case of “CUACUACACAUGGGUCGGGUGAGUGGCAAAGGAAUAGUAG (2'-O-methyl at ACU, RNA at G, backbone not given here) [ARC725]”, the “PSMA binding (in words)” value [2] is reported as “no intrinsic PSMA binding; also recorded: not to exhibit PSMA binding”.

For “UAAUACGACUCACUAUAGGGAGAGGAGAGAACGUUCUACUAUGGGUGGCUGGGAGGGGAAGAGGGAGUAGGUCGAUCGAUCGAUCAUCGAUG [ARC955]”, the “effect on cell viability / cell killing (in words)” value [1] was “no intrinsic effect on cell viability at any concentration”.

In the case of “c6 fam-mCmGmGmAfCfCmGAAAAmAmGmAmCfCfUGAfCfUfUfCfUAfUAfCfUAAmGmUmCmUAfCmGfUmUmCmCmG-3T (CGGACCGAAAAAGACCUGACUUCUAUACUAAGUCUACGUUCCG; sugars from the 5' end mmmmffmrrrrmmmmffrrfffffrfrffrrmmmmrfmfmmmm, [invdT] at 3' end, 5' {C6-FAM}, backbone not given here) [ARC711, fluorescently labeled A9 minimer]”, the “competition with fluorescently labeled anti-PSMA antibody for binding to the surface of LNCaP cells” value [3] is reported as “effectively competes”.

In the case of “mCmGmGmACmGAAAAmAmGmAmCfCfUGAfCfUfUfCfUAfUAfCfUAAmGmUmCmUAfCmGfUmUmCmCmG-3T [ARC942]”, the “effect on cell viability / cell killing (in words)” value [1] is reported as “no intrinsic effect on cell viability at any concentration”.

“mCmGmGmAfCfCmGdAdAfCmAmAmGmGmCfCfU-s-dGmAfCfUfUfCfUmAfUmAfCfUdAmAmGmCmCmUmAfCmGfUmUmCmCmG-3T (CGGACCGAACAAGGCCUGACUUCUAUACUAAGCCUACGUUCCG; sugars from the 5' end mmmmffmddfmmmmmffdmfffffmfmffdmmmmmmfmfmmmm, [invdT] at 3' end, backbone not given here; internal -s- element between two units) [ARC1725]” was tested, and the “NAALADase inhibition activity (in words)” value [4] was “retained full activity”.
